Data from patent US9221791B2, “Metalloenzyme inhibitor compounds” (Viamet Pharmaceuticals, Inc., priority 2011, dated 2015).
≈ marks a conversion by molar mass, not a printed value.

Columns and labels:
[1] = test system: C. albicans; assay: Minimum Inhibitory Concentration (MIC) (C. albicans), CLSI M27-A2; format: cell-based; conditions: Candida albicans; approximately 48 h at 35±1° C.; about 50% growth reduction
Protocol: A. Minimum Inhibitory Concentration (MIC) (C. albicans) Compounds of the present disclosure were assessed for their ability to inhibit the growth of common strains of fungus, C. albicans using a standardized procedure (CLSI M27-A2). Stock solutions of the test compounds and standards were prepared in DMSO at 1,600 μg/mL (C. albicans). Eleven, serial, one-half dilutions of compounds were prepared in 96-well plates in RPMI+MOPS. The assay concentration ranges were 8-0.001 μg/mL (C. albicans). Cell suspensions of C. albicans were prepared and added to each well at concentrations of approximately 3.7×10^3 colony-forming-units per milliliter (cfu/mL). All testing was in duplicate. The inoculated plates were incubated for approximately 48 h at 35±1° C. At the completion of incubation the wells of each plate were evaluated visually for the presence of fungal growth. […] For QC purposes C. krusei isolate ATCC 6258 (4.0×10^3 cfu/mL) was included in the VOR assay.

[2] = test system: Septoria tritici (ATCC 26517); assay: Minimum Inhibitory Concentration (MIC) (Septoria tritici), CLSI-based microdilution; format: cell-based; conditions: S. tritici ATCC 26517, 22° C. for seven days, 50% reduction in growth; for MIC: Zymoseptoria tritici, ATCC26517, 168 h, read-out: Septoria Rating (MIC)
Procedure, shortened: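 S. tritici (ATCC 26517) tested by CLSI-style broth microdilution for filamentous fungi in RPMI-1640/MOPS, 2-fold series 16–0.016 μg/mL (11 concentrations, 2% DMSO before inoculum), duplicate rows. Inoculum ~5×10^4 cfu/mL; plates incubated 7 days at 22 °C in the dark, static; growth scored on a rating scale.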

[3] = test system: Puccinia recondita tritici = Puccinia triticina; assay: Fungicidal activity vs. leaf rust on wheat plants; format: in vivo; conditions: wheat (variety Yuma) sprayed at 50 ppm, inoculated on the following day, evaluated 7-9 days later; read-out: Puccinia Rating (% Disease Control @ 50 ppm)
Excerpt: D. Evaluation of Fungicidal Activity Vs. Leaf Rust (Causal Agent Puccinia recondita tritici=Puccinia triticina; Bayer Code PUCCRT). […] Each pot contained 3-8 seedlings. These plants were sprayed until wet with the formulated test compounds. The compounds were formulated at 50 ppm in 10 vol. % acetone plus 90 vol. % Triton X water (deionized water 99.99 wt %+0.01 wt % Triton X100), giving a “formulated test compound.” Formulated test compounds were applied to plants using a turn table sprayer fitted with two opposing air atomization nozzles which delivered approximately 1500 L/ha of spray volume. On the following day, the leaves were inoculated with an aqueous spore suspension of Puccinia recondita tritici and the plants were kept in high humidity overnight to permit spores to germinate and infect the leaf. The plants were then transferred to a greenhouse until disease developed on untreated control plants. Disease severity was evaluated 7-9 days later, depending on the speed of disease development. In each case of Table 3, the Puccinia rating scale is as follows: […]

[4] = molecular target: CYP3A4 (Homo sapiens (Human), UniProt P08684); assay: Inhibition of Liver Cytochrome P450 Enzymes (pooled human liver microsomes), CYP3A4; format: in vitro ADME
Protocol: B. Inhibition of Liver Cytochrome P450 Enzymes
Solutions of each test compound were separately prepared at concentrations of 20000, 6000, 2000, 600, 200, and 60 μM by serial dilution with DMSO:MeCN (50:50 v/v). The individual test compound solutions were then diluted 20-fold with DMSO:MeCN:deionized water (5:5:180 v/v/v) to concentrations of 1000, 300, 100, 30, 10, and 3 μM. Mixtures of isozyme inhibitors (sulfaphenazole, tranylcypromine, and ketoconazole as specific inhibitors of isozymes 2C9, 2C19, and 3A4, respectively) were prepared containing each inhibitor at concentrations of 6000, 2000, 600, 200, 60, 20, 6, and 2 μM by serial dilution with DMSO:CH3CN (50:50 v/v). […]
Pooled human liver microsome suspension (20 mg/mL) was diluted with phosphate buffer to obtain a 5 mg/mL suspension. […] Separate stock solutions of each substrate were prepared in DMSO:MeCN (50:50 v/v), mixed, and diluted in phosphate buffer to obtain a single solution containing each substrate at five times its experimentally determined Km concentration. […]
Substrate solution and microsome suspension were combined in a 1:1 volume ratio, mixed, and distributed to reaction wells of a PCR plate. […] A portion of the supernatant was analyzed by gradient reverse-phase HPLC with detection by electrospray ionization triple quadrupole mass spectrometry in the positive ion mode. […]

Chain of CYP3A4 (P08684 whole entry): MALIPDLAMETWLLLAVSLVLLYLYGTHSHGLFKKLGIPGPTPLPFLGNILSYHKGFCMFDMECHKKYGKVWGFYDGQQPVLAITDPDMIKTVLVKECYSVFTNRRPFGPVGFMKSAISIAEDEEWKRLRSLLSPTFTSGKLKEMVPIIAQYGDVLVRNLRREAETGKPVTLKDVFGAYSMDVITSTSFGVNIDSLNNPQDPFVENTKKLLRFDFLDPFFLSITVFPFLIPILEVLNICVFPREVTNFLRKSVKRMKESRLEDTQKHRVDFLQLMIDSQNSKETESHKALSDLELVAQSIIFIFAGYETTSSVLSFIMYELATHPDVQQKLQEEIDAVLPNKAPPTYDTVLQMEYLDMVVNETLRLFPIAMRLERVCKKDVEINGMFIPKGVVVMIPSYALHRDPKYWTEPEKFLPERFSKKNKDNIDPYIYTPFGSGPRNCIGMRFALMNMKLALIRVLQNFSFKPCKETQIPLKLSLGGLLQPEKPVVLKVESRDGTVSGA

Compound	MIC [1]	MIC [2]	pest or weed control at 50 ppm [3]	IC50 [4]	Septoria Rating (MIC) [2]
OC(Cn1cnnn1)(c1ccc(F)cc1F)C(F)(F)c1ccc(/C=C/COCC(F)(F)F)cn1 (stereo not shown) [Compound 6, (E)-2-(2,4-Difluorophenyl)-1,1-difluoro-3-(1H-tetrazol-1-yl)-1-(5-(3-(2,2,2-trifluoroethoxy)prop-1-en-1-yl)pyridin-2-yl)propan-2-ol]	≤ 0.016 µg/mL	≤ 0.5 µg/mL	< 40%		
CCOC(=O)/C=C/c1ccc(C(F)(F)C(O)(Cn2cnnn2)c2ccc(F)cc2F)nc1 (stereo not shown) [Compound 4, (E)-Ethyl 3-(6-(2-(2,4-difluorophenyl)-1,1-difluoro-2-hydroxy-3-(1H-tetrazol-1-yl)propyl)pyridin-3-yl)acrylate]	≤ 0.016 µg/mL	≤ 0.5 µg/mL			
OC(Cn1cnnn1)(c1ccc(F)cc1F)C(F)(F)c1ccc(-c2ccc(F)nc2)cn1 (stereo not shown) [Compound 31, 2-(2,4-Difluorophenyl)-1,1-difluoro-1-(6′-fluoro-[3,3′-bipyridin]-6-yl)-3-(1H-tetrazol-1-yl)propan-2-ol]	0.062 µg/mL (≈ 0.138 µM)			33 µM	C (>1.5-4)
OC(Cn1cnnn1)(c1ccc(F)cc1F)C(F)(F)c1ccc(-c2ccc(Cl)nc2)cn1 (stereo not shown) [Compound 30, 1-(6′-Chloro-[3,3′-bipyridin]-6-yl)-2-(2,4-difluorophenyl)-1,1-difluoro-3-(1H-tetrazol-1-yl)propan-2-ol]	0.062 µg/mL (≈ 0.133 µM)		80 to 100%		
